Literature values as cited in patent US6635757B1, “Process for preparing cyclodextrin inclusion complex” (Vittal Mallya Scientific Research Foundation, priority 2001, dated 2003).

Structure (SMILES): C/C=C(\C)C(=O)O[C@H]1C[C@@H](OC(C)=O)[C@@]2(C(=O)OC)CO[C@H]3[C@@H](O)[C@@](C)([C@]45O[C@@]4(C)[C@@H]4C[C@H]5O[C@@H]5OC=C[C@@]54O)[C@H]4[C@]1(CO[C@]4(O)C(=O)OC)[C@@H]32 [Azadirachtin-A]
- Activity compared with NSKE (containing azadirachtin-A<70%) (insects; azadirachtin-A of 99% purity): not as active as NSKE

Structure (SMILES): C/C=C(\C)C(=O)O[C@H]1C[C@@H](OC(C)=O)[C@@]2(C(=O)OC)CO[C@H]3[C@@H](O)[C@@](C)([C@]45O[C@@]4(C)[C@H]4C[C@@H]5O[C@@H]5OC=C[C@@]54O)[C@H]4[C@]1(CO[C@]4(O)C(=O)OC)[C@@H]32 [Azadirachtin]
- Sensitivity to sunlight: extremely sensitive
- Physiological concentration required to elicit growth retardation (insects; varies from species to species): 1-100 ppm
